Measurements reported in patent publication US20160287589A1, “SUBSTITUTED-IMIDAZOPYRIDAZINES” (BAYER PHARMA AKTIENGESELLSCHAFT, priority 2013, published 2016).
pIC50: −log10 of the molar value.

Legend:
MKNK1 [1] = molecular target: T1, MKNK1 (Homo sapiens, UniProt Q9BUB5, T385D); experiment: MKNK1 kinase assay (MKNK1 TR-FRET assay); format: biochemical; conditions: Table 1b; 10 μM ATP, 15 min preincubation
T1 construct: GST (N); purchased Carna Biosciences 02-145; host or cells: insect cells (baculovirus expression system)
T1 sequence (Q9BUB5 1-424 isoform Q9BUB5-2 T344D): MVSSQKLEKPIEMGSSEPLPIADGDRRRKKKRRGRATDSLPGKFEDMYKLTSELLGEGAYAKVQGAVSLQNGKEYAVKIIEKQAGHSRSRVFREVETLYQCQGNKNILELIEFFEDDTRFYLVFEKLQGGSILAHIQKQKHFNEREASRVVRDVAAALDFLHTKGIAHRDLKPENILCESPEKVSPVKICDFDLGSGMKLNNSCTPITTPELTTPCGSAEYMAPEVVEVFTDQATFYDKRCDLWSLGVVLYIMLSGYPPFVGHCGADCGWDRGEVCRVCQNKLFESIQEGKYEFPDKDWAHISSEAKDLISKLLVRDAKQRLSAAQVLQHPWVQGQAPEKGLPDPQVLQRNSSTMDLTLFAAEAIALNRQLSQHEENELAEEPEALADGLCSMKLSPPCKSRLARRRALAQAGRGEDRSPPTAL

MKNK1 [2] = molecular target: T1, MKNK1; experiment: MKNK1 kinase high ATP assay (TR-FRET-based); format: biochemical; conditions: Table 2b; 2 mM ATP, 15 min preincubation
Summary of the method: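 TR-FRET read-out (anti-phospho-S6 Ser236 antibody, Eu/XL665) of biotin-peptide phosphorylation (0.06 μM) at high ATP (2 mM final). Enzyme was GST-MKNK1 full length, T344D, pre-bound to compound for 15 min before a 30 min reaction at 22 °C, pH 7.5. Inhibition scaled between no-inhibitor (0%) and no-enzyme (100%) wells.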

| SMILES | pIC50 (MKNK1 [1]) | pIC50 (MKNK1 [2]) |
| --- | --- | --- |
| CC1(C)CN(c2cccc3oc(-c4cnc5ccc(OC[C@H]6CCC(=O)N6)nn45)cc23)CCN1 [II-46, (5R)-5-[({3-[4-(3,3-dimethylpiperazin-1-yl)-1-benzofuran-2-yl]imidazo[1,2-b]pyridazin-6-yl}oxy)methyl]pyrrolidin-2-one] | 8.85 | 9.70 |
| COC[C@H]1CCCN1c1cccc2oc(-c3cnc4ccc(OC[C@@H]5CNCC(=O)N5)nn34)cc12 [II-47, (6S)-6-{[(3-{4-[(2R)-2-(methoxymethyl)pyrrolidin-1-yl]-1-benzofuran-2-yl}imidazo[1,2-b]pyridazin-6-yl)oxy]methyl}piperazin-2-one] | 8.32 | 9.10 |
| COC[C@H]1CCCN1c1cccc2oc(-c3cnc4ccc(OC[C@H]5CNCC(=O)N5)nn34)cc12 [II-48, (6R)-6-{[(3-{4-[(2R)-2-(methoxymethyl)pyrrolidin-1-yl]-1-benzofuran-2-yl}imidazo[1,2-b]pyridazin-6-yl)oxy]methyl}piperazin-2-one] | 8.15 | 8.41 |
| C[C@@H]1COCCN1c1cccc2oc(-c3cnc4ccc(OC[C@H]5CCC(=O)N5)nn34)cc12 [II-49, (5R)-5-{[(3-{4-[(3R)-3-methylmorpholin-4-yl]-1-benzofuran-2-yl}imidazo[1,2-b]pyridazin-6-yl)oxy]methyl}pyrrolidin-2-one] | 8.28 | 7.92 |
| C[C@@H]1COCCN1c1cccc2oc(-c3cnc4ccc(O[C@H]5C[C@H](N)C5)nn34)cc12 [II-50, trans-3-[(3-{4-[(3R)-3-methylmorpholin-4-yl]-1-benzofuran-2-yl}imidazo[1,2-b]pyridazin-6-yl)oxy]cyclobutanamine] | 7.41 | 7.30 |
| C[C@@H]1COCCN1c1cccc2oc(-c3cnc4ccc(OC[C@@H]5CCC(=O)N5)nn34)cc12 [II-51, (5S)-5-{[(3-{4-[(3R)-3-methylmorpholin-4-yl]-1-benzofuran-2-yl}imidazo[1,2-b]pyridazin-6-yl)oxy]methyl}pyrrolidin-2-one] | 8.55 | 7.29 |
| C[C@H]1CN(c2cccc3oc(-c4cnc5ccc(OC[C@H]6CCC(=O)N6)nn45)cc23)CCN1 [II-53, (5R)-5-{[(3-{4-[(3S)-3-methylpiperazin-1-yl]-1-benzofuran-2-yl}imidazo[1,2-b]pyridazin-6-yl)oxy]methyl}pyrrolidin-2-one] | 8.96 | 8.96 |
| CC1(C)CN(c2cccc3oc(-c4cnc5ccc(OCC(F)(F)F)nn45)cc23)CCN1 [II-54, 3-[4-(3,3-dimethylpiperazin-1-yl)-1-benzofuran-2-yl]-6-(2,2,2-trifluoroethoxy)im-idazo[1,2-b]pyridazine] | 8.64 | 8.62 |
| CC1(C)CN(c2cccc3oc(-c4cnc5ccc(OCCCS(C)(=O)=O)nn45)cc23)CCN1 [II-55, 3-[4-(3,3-dimethylpiperazin-1-yl)-1-benzofuran-2-yl]-6-[3-(methylsulfonyl)propoxy]im-idazo[l,2-b]pyridazine] | 8.46 | 8.85 |
| FC(F)(F)COc1ccc2ncc(-c3cc4c(N5CCNCC5)cccc4o3)n2n1 [II-56, 3-[4-(piperazin-1-yl)-1-benzofuran-2-yl]-6-(2,2,2-trifluoroethoxy)im-idazo[1,2-b]pyridazine] | 8.27 | 8.51 |
| C[C@H](N)COc1ccc2ncc(-c3cc4c(N5CCOC[C@H]5C)cccc4o3)n2n1 [II-57, (2S)-1-[(3-{4-[(3R)-3-methylmorpholin-4-yl]-1-benzofuran-2-yl}imidazo[1,2-b]pyridazin-6-yl)oxy]propan-2-amine] | 7.27 | 7.12 |
| C[C@H]1CNCCN1c1cccc2oc(-c3cnc4ccc(OCCCS(C)(=O)=O)nn34)cc12 [II-58, 3-{4-[(2S)-2-methylpiperazin-1-yl]-1-benzofuran-2-yl}-6-[3-(methylsulfonyl)propoxy]im-idazo[1,2-b]pyridazine] | 8.59 | 8.85 |
| C[C@@H]1CN(c2cccc3oc(-c4cnc5ccc(OCC(F)(F)F)nn45)cc23)CCN1 [II-59, 3-{4-[(3R)-3-methylpiperazin-1-yl]-1-benzofuran-2-yl}-6-(2,2,2-trifluoroethoxy)im-idazo[1,2-b]pyridazine] | 8.19 | 8.70 |
| C[C@H](N)COc1ccc2ncc(-c3cc4c(N5CCOC(C)(C)C5)cccc4o3)n2n1 [II-61, (2S)-1-({3-[4-(2,2-dimethylmorpholin-4-yl)-1-benzofuran-2-yl]imidazo[1,2-b]pyridazin-6-yl}oxy)propan-2-amine] | 7.63 | 7.18 |
| CC1(C)CN(c2cccc3oc(-c4cnc5ccc(OC[C@@H]6CCC(=O)N6)nn45)cc23)CCO1 [II-63, (5S)-5-[({3-[4-(2,2-dimethylmorpholin-4-yl)-1-benzofuran-2-yl]imidazo[1,2-b]pyridazin-6-yl}oxy)methyl]pyrrolidin-2-one] | 7.82 | 7.40 |
| C[C@@H]1CNCCN1c1cccc2oc(-c3cnc4ccc(OC[C@H]5CCC(=O)N5)nn34)cc12 [II-65, (5R)-5-{[(3-{4-[(2R)-2-methylpiperazin-1-yl]-1-benzofuran-2-yl}imidazo[1,2-b]pyridazin-6-yl)oxy]methyl}pyrrolidin-2-one] | 9.05 | 8.89 |
| C[C@H](N)COc1ccc2ncc(-c3cc4c(N5CCO[C@@H](C)C5)cccc4o3)n2n1 [II-67, (2S)-1-[(3-{4-[(2S)-2-methylmorpholin-4-yl]-1-benzofuran-2-yl}imidazo[1,2-b]pyridazin-6-yl)oxy]propan-2-amine] | 7.63 | 7.25 |
| C[C@H]1CN(c2cccc3oc(-c4cnc5ccc(OC[C@@H]6CCC(=O)N6)nn45)cc23)CCO1 [II-68, (5S)-5-{[(3-{4-[(2S)-2-methylmorpholin-4-yl]-1-benzofuran-2-yl}imidazo[1,2-b]pyridazin-6-yl)oxy]methyl}pyrrolidin-2-one] | 7.63 | 7.52 |
| C[C@@H]1CN(c2cccc3oc(-c4cnc5ccc(OC[C@@H](C)N)nn45)cc23)CCO1 [II-69, (2R)-1-[(3-{4-[(2R)-2-methylmorpholin-4-yl]-1-benzofuran-2-yl}imidazo[1,2-b]pyridazin-6-yl)oxy]propan-2-amine] | 7.53 | 7.46 |
| C[C@H](N)COc1ccc2ncc(-c3cc4c(N5CCO[C@H](C)C5)cccc4o3)n2n1 [II-70, (2S)-1-[(3-{4-[(2R)-2-methylmorpholin-4-yl]-1-benzofuran-2-yl}imidazo[1,2-b]pyridazin-6-yl)oxy]propan-2-amine] | 7.38 | 7.31 |
| C[C@@H]1CN(c2cccc3oc(-c4cnc5ccc(OC[C@H]6CCC(=O)N6)nn45)cc23)CCO1 [II-71, (5R)-5-{[(3-{4-[(2R)-2-methylmorpholin-4-yl]-1-benzofuran-2-yl}imidazo[1,2-b]pyridazin-6-yl)oxy]methyl}pyrrolidin-2-one] | 8.19 | 8.21 |
| C[C@@H]1CN(c2cccc3oc(-c4cnc5ccc(OC[C@@H]6CCC(=O)N6)nn45)cc23)CCO1 [II-72, (5S)-5-{[(3-{4-[(2R)-2-methylmorpholin-4-yl]-1-benzofuran-2-yl}imidazo[1,2-b]pyridazin-6-yl)oxy]methyl}pyrrolidin-2-one] | 7.80 | 7.48 |
